In one assay the target is T1, IGF1R (Homo sapiens, UniProt P08069).
T1 construct: DNA tag (qPCR read-out); purchased Ambit Biosciences (KINOMEscan service)
Further details: method as in earlier work. The conditions noted are these: Table S1; cited from earlier work.

A further assay addresses T2, DLK (Homo sapiens, UniProt Q12852).
T2 sequence (Q12852 1-859): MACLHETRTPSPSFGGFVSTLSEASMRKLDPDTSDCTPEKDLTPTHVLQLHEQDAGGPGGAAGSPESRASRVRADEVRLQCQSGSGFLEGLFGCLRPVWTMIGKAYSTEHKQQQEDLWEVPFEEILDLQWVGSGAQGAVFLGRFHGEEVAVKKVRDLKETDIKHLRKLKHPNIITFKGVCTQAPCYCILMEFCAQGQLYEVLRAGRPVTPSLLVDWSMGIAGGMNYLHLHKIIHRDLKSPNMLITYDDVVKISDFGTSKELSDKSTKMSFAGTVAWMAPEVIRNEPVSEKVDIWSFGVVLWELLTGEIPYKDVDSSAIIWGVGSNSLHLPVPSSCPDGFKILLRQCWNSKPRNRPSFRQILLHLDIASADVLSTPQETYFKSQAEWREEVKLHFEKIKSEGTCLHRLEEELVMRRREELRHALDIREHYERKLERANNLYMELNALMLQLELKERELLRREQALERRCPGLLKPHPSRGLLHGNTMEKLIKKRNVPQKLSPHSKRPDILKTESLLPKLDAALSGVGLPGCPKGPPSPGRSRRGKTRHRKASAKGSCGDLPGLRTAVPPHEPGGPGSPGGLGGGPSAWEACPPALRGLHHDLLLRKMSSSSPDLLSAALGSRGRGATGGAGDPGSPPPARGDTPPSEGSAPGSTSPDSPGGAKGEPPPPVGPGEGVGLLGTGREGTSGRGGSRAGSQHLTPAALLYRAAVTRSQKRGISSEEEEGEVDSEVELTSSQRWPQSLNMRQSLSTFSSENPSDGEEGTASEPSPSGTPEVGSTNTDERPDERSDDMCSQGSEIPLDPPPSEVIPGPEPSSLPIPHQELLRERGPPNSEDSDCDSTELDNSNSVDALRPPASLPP
On the set-up: method as in earlier work. Particulars: Table S1; cited from earlier work.

For a further assay, the target named is T3, CAMK4 (Homo sapiens, UniProt Q16566).
T3 construct: purchased DiscoveRx KINOMEscan (Ambit Biosciences)
T3 sequence (Q16566 1-473): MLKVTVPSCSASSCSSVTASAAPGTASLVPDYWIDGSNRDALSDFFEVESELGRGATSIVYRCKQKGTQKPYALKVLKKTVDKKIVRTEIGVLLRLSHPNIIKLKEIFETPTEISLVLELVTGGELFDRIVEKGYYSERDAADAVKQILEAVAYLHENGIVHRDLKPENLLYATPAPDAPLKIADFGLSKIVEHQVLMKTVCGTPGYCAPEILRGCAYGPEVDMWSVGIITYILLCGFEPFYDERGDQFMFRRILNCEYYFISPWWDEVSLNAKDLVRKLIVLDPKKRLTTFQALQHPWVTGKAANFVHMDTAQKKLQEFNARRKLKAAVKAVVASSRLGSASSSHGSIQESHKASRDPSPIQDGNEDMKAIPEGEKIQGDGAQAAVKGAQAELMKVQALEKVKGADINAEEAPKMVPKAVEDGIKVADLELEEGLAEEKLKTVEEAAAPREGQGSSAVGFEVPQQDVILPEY
Further details: method as in earlier work. The conditions noted are these: Table S1; cited from earlier work.

A further assay deals with T4, BRK (Homo sapiens, UniProt Q13882).
T4 construct: purchased DiscoveRx KINOMEscan (Ambit Biosciences)
T4 sequence (Q13882 whole entry): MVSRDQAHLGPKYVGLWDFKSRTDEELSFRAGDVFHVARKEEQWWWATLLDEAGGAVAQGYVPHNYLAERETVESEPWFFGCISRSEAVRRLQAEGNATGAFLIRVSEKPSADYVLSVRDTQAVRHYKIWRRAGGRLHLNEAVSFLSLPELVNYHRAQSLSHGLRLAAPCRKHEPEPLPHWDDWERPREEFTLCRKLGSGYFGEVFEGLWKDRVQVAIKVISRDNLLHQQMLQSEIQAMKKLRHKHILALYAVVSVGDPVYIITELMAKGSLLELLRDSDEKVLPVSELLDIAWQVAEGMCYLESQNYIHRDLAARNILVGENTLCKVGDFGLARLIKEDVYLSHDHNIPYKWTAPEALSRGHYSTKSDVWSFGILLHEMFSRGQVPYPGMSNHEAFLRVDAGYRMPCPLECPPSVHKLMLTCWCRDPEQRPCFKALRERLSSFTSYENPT
The assay can be described thus: KINOMEscan panel screen. The format is binding. The conditions noted are these: read-out: Percent Control(%).

In the next assay the target is T5, ACVR2A (Homo sapiens, UniProt P27037).
T5 construct: purchased DiscoveRx KINOMEscan (Ambit Biosciences)
The assay can be described thus: KINOMEscan panel screen. Type of assay: binding. The conditions noted are these: read-out: Percent Control(%).

The target in another assay is T6, YANK1 (Homo sapiens, UniProt Q8WU08).
T6 construct: purchased DiscoveRx KINOMEscan (Ambit Biosciences)
The assay can be described thus: KINOMEscan panel screen. Particulars: read-out: Percent Control(%). Type of assay: binding.

The target in another assay is T7, PKAC-alpha (Homo sapiens, UniProt P17612).
T7 construct: purchased DiscoveRx KINOMEscan (Ambit Biosciences)
The assay can be described thus: KINOMEscan panel screen. Type of assay: binding. The conditions noted are these: read-out: Percent Control(%).

For another assay, the target named is T8, NDR1 (Homo sapiens, UniProt Q15208).
T8 construct: purchased DiscoveRx KINOMEscan (Ambit Biosciences)
T8 sequence (Q15208 whole entry): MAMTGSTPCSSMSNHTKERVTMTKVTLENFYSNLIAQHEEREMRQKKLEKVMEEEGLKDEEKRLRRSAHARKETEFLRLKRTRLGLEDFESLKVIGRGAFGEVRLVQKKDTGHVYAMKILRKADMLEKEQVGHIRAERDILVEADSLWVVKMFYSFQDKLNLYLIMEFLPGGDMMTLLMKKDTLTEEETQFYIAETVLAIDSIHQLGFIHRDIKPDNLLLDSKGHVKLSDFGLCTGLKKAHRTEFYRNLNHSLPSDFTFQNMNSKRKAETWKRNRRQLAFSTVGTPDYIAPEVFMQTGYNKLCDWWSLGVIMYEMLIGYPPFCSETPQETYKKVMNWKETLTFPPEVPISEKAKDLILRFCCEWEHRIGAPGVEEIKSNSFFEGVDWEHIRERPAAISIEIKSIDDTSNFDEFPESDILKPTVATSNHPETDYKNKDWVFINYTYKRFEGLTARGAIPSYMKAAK
The assay can be described thus: KINOMEscan panel screen. The format is binding. The conditions noted are these: read-out: Percent Control(%).

The target in the next assay is T9, PLK1 (Homo sapiens, UniProt P53350).
T9 construct: purchased DiscoveRx KINOMEscan (Ambit Biosciences)
The assay can be described thus: KINOMEscan panel screen. Particulars: read-out: Percent Control(%). Type of assay: binding.

In the next assay the target is T10, AKT2 (Homo sapiens, UniProt P31751).
T10 construct: purchased DiscoveRx KINOMEscan (Ambit Biosciences)
T10 sequence (P31751 whole entry): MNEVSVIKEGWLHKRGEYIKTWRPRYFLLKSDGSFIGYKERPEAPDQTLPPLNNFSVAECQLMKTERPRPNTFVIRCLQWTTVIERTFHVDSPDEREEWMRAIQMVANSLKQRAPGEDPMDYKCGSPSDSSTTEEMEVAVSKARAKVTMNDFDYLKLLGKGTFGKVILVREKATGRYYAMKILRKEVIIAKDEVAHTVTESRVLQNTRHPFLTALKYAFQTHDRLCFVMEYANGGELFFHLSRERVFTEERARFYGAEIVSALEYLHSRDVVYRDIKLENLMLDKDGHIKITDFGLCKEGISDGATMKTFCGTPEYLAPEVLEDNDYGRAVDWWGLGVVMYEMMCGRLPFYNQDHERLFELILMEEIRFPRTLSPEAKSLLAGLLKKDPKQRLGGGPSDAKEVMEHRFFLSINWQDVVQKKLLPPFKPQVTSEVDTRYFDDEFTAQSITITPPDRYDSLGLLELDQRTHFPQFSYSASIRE
The assay can be described thus: KINOMEscan panel screen. The format is binding. The conditions noted are these: read-out: Percent Control(%).

The target of assay [1] is T11, RSK2(Kin.Dom.1-N-terminal) (Homo sapiens, UniProt P51812).
T11 construct: RSK2(Kin.Dom.1-N-terminal); purchased DiscoveRx KINOMEscan (Ambit Biosciences)
T11 sequence (P51812 68-327 limits assumed): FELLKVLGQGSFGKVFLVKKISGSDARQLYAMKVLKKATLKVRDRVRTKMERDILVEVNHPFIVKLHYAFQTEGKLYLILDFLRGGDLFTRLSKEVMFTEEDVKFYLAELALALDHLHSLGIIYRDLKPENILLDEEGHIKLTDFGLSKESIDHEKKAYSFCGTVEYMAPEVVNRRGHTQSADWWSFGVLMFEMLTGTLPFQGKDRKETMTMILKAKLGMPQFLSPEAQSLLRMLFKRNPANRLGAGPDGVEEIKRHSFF
The assay can be described thus: KINOMEscan panel screen. Type of assay: binding. The conditions noted are these: read-out: Percent Control(%).

Another assay concerns the target T12, FLT3(N841I) (Homo sapiens, UniProt P36888, N841I).
T12 construct: purchased DiscoveRx KINOMEscan (Ambit Biosciences)
The assay can be described thus: KINOMEscan panel screen. Particulars: read-out: Percent Control(%). Type of assay: binding.

Another assay addresses T13, ERK1 (Homo sapiens, UniProt P27361).
T13 construct: purchased DiscoveRx KINOMEscan (Ambit Biosciences)
The assay can be described thus: KINOMEscan panel screen. The format is binding. Particulars: read-out: Percent Control(%).

A further assay addresses T14, EGFR(G719S) (Homo sapiens, UniProt P00533, G719S).
T14 construct: purchased DiscoveRx KINOMEscan (Ambit Biosciences)
The assay can be described thus: KINOMEscan panel screen. The conditions noted are these: read-out: Percent Control(%). Type of assay: binding.

Another assay concerns the target T15, AURKC (Homo sapiens, UniProt Q9UQB9).
T15 construct: purchased DiscoveRx KINOMEscan (Ambit Biosciences)
The assay can be described thus: KINOMEscan panel screen. Type of assay: binding. The conditions noted are these: read-out: Percent Control(%).

The next assay addresses T16, FLT3(R834Q) (Homo sapiens, UniProt P36888, R834Q).
T16 construct: purchased DiscoveRx KINOMEscan (Ambit Biosciences)
The assay can be described thus: KINOMEscan panel screen. Type of assay: binding. The conditions noted are these: read-out: Percent Control(%).

The target of another assay is T17, PAK7 (Homo sapiens, UniProt Q9P286).
T17 construct: purchased DiscoveRx KINOMEscan (Ambit Biosciences)
T17 sequence (Q9P286 whole entry): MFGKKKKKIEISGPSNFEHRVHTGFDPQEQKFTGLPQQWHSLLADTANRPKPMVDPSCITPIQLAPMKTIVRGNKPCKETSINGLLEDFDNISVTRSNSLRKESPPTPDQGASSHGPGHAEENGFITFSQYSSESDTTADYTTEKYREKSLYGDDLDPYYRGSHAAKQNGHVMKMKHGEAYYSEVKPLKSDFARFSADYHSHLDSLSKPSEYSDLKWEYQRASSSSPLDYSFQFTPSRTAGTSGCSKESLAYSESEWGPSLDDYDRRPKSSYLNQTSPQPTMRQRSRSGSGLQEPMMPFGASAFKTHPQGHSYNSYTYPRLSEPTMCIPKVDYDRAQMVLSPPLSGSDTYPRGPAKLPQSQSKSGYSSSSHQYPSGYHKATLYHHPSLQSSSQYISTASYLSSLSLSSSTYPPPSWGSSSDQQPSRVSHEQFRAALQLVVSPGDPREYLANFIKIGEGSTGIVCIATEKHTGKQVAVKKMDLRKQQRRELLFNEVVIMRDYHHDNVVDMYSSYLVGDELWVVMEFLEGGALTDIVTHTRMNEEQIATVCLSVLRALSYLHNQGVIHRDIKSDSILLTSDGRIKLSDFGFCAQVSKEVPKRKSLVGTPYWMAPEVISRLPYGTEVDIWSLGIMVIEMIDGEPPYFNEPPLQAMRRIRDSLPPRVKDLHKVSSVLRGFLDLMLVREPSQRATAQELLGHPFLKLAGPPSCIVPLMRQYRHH
The assay can be described thus: KINOMEscan panel screen. Particulars: read-out: Percent Control(%). Type of assay: binding.

A further assay addresses T18, FLT1 (Homo sapiens, UniProt P17948).
T18 construct: purchased DiscoveRx KINOMEscan (Ambit Biosciences)
The assay can be described thus: KINOMEscan panel screen. Type of assay: binding. Particulars: read-out: Percent Control(%).

The next assay concerns the target T19, MEK5 (Homo sapiens, UniProt Q13163).
T19 construct: purchased DiscoveRx KINOMEscan (Ambit Biosciences)
The assay can be described thus: KINOMEscan panel screen. Type of assay: binding. The conditions noted are these: read-out: Percent Control(%).

A further assay has as its target T20, CDK9 (Homo sapiens, UniProt P50750).
T20 construct: purchased DiscoveRx KINOMEscan (Ambit Biosciences)
The assay can be described thus: KINOMEscan panel screen. The conditions noted are these: read-out: Percent Control(%). Type of assay: binding.

The target in another assay is T21, BRSK1 (Homo sapiens, UniProt Q8TDC3).
T21 construct: purchased DiscoveRx KINOMEscan (Ambit Biosciences)
The assay can be described thus: KINOMEscan panel screen. Particulars: read-out: Percent Control(%). The format is binding.

A further assay addresses T22, PLK4 (Homo sapiens, UniProt O00444).
T22 construct: purchased DiscoveRx KINOMEscan (Ambit Biosciences)
The assay can be described thus: KINOMEscan panel screen. Type of assay: binding. The conditions noted are these: read-out: Percent Control(%).

A further assay addresses T23, PKAC-beta (Homo sapiens, UniProt P22694).
T23 construct: purchased DiscoveRx KINOMEscan (Ambit Biosciences)
The assay can be described thus: KINOMEscan panel screen. The format is binding. Particulars: read-out: Percent Control(%).

For another assay, the system named is KG-1. The assay can be described thus: MTT cell viability assay. Particulars: Homo sapiens, KG-1, 72 h.
The next assay addresses T24, MEK4 (Homo sapiens, UniProt P45985).
T24 construct: purchased DiscoveRx KINOMEscan (Ambit Biosciences)
The assay can be described thus: KINOMEscan panel screen. The format is binding. The conditions noted are these: read-out: Percent Control(%).

Structures are written as SMILES.

T22 sequence (O00444 whole entry): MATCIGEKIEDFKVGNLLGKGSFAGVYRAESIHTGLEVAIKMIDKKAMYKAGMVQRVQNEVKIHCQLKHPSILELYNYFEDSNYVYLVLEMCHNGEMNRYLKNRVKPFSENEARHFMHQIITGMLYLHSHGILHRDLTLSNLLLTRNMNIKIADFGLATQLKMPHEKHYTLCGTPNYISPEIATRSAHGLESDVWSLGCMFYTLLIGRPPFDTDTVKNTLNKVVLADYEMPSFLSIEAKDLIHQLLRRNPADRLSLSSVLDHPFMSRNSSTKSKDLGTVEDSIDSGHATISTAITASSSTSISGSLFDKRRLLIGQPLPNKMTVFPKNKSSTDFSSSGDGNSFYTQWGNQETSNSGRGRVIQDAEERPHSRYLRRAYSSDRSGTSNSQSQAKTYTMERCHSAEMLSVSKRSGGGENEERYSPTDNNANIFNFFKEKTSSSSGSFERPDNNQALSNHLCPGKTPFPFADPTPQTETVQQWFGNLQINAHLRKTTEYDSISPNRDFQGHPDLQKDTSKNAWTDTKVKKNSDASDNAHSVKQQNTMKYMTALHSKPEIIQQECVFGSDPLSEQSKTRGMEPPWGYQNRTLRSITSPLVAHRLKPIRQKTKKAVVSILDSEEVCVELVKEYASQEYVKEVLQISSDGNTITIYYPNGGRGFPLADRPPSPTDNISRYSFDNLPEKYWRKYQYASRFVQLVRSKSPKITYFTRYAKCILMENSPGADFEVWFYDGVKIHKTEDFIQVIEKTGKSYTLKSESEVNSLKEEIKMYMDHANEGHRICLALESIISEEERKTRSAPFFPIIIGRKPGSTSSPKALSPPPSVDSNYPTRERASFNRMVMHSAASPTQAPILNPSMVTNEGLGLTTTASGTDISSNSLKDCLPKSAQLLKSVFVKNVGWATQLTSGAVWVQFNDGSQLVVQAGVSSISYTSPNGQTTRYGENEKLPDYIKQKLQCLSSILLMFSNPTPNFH
T14 sequence (P00533 25-1210 G719S): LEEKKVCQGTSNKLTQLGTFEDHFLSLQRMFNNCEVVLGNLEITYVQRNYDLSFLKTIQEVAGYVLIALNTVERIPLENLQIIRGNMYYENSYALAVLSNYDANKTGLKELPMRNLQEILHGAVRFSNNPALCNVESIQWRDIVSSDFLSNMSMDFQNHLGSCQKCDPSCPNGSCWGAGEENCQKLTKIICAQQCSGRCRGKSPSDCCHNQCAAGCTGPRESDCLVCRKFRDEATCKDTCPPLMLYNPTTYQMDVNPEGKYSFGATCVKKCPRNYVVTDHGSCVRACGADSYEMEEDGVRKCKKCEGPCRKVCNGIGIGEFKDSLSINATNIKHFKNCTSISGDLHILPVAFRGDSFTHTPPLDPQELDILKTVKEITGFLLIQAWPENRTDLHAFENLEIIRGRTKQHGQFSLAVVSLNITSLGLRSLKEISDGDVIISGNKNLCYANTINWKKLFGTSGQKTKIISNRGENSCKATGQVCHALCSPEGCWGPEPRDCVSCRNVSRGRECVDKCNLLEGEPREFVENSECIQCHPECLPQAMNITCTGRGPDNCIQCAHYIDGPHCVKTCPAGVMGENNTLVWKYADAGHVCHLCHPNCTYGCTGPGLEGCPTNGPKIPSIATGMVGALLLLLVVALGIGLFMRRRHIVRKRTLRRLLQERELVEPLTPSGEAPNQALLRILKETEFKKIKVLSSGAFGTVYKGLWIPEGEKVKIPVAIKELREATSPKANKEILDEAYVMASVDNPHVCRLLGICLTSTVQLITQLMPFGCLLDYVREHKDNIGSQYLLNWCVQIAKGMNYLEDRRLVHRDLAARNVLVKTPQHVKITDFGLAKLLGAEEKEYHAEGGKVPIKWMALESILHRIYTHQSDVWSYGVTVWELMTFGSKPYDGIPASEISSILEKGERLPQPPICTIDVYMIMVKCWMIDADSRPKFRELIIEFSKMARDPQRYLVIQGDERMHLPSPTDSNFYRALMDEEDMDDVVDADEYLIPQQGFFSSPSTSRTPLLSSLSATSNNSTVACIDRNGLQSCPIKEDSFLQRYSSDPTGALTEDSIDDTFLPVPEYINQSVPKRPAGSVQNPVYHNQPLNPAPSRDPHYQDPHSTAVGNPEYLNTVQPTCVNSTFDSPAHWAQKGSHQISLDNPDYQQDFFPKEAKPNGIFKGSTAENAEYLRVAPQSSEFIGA
T19 sequence (Q13163 whole entry): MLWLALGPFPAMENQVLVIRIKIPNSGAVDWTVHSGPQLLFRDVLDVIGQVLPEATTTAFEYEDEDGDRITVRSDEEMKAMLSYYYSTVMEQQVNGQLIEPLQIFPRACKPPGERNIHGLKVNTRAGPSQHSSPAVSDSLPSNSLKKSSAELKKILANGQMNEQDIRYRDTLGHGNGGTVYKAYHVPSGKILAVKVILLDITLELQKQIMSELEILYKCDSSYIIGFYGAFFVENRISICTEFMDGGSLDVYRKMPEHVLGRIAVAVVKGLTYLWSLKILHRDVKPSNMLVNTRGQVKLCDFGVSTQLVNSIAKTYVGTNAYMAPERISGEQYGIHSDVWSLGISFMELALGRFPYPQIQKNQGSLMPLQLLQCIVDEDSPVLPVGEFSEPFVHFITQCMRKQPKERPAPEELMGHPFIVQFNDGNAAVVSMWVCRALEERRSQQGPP

With `O=C(Nc1ccc(Oc2ncnc3[nH]ncc23)cc1)Nc1ccc(Cl)c(C(F)(F)F)c1` [Compound 1, 1-(4-(1H-pyrazolo[3,4-d]pyrimidin-4-yloxy)phenyl)-3-(4-chloro-3-(trifluoromethyl)phenyl)urea], the half-inhibitory concentration (IC50) at IGF1R, on DLK and on CAMK4 was above 10 µM throughout.
As to `CC(C)(C)c1cc(NC(=O)Nc2ccc(Oc3ncnc4[nH]ncc34)c(F)c2)no1` [SKLB-677, 1-(4-(1H-pyrazolo[3,4-d]pyrimidin-4-yloxy)-3-fluorophenyl)-3-(5-tert-butylisoxazol-3-yl)urea], the remaining binding at 10 µM stood at 23% on BRK; 100% at ACVR2A; 88% on YANK1; 31% on PKAC-alpha; 58% on NDR1; 35% on PLK1. Besides, the remaining binding at 10 µM at AKT2 is 100%; in [1], 35%; at FLT3(N841I), 0%; at ERK1, 76%; at EGFR(G719S) it was 47%; on AURKC, 1.4%. Moreover, the remaining binding at 10 µM at FLT3(R834Q) stood at 2.8%; on PAK7, 100%; at FLT1, 0.05%; at MEK5, 13%; at CDK9 it was 5.6%; on BRSK1, 85%. Also, the remaining binding at 10 µM at PLK4 amounted to 68%; on PKAC-beta, 88%; on MEK4, 39%. In the assay on KG-1, the IC50 stood at 2 µM.

As usually defined, the IC50 is the midpoint of a concentration-inhibition curve.

The values above are taken from publication PMC4620497 (Scientific Reports, 2015).
